Data as given in patent publication US9573899B2, “USP7 inhibitor compounds and methods of use” (Genentech, Inc., priority 2015, dated 2017).

How the values were obtained:
[1] = system: p53 and p21 in HCT116 colon cancer cell lines; experiment: Western blot of p53 and p21 in isogenic HCT116 cell lines (FIG. 2A); assay type: cell-based, Human; conditions: isogenic HCT116: wild-type, USP7 null
Method: (§1) In 24-well plates, 0.10-0.15×10^6 (adherent) or 0.5×10^6 (suspension) cells were treated with 15 μM or 2.5 μM compounds, respectively, for 24 h in low serum prior to lysis for Western Blot analysis.

[2] = system: U2Os p53 WT osteosarcoma cells; experiment: Incucyte cell proliferation and caspase activity, U2Os (FIG. 11, 16); assay type: cell-based; conditions: U2Os p53 WT compared to SaOs p53 null cells; compared to 89
Method: 2,500-5,000 cells were seeded in 1-well of a 96-well plate (Corning; 3904). The following day, the media was changed from normal (10%) to low serum (0.5%) containing vehicle (DMSO) or compounds. 16-24 h later FBS was added to each well to bring serum levels back to normal (10%). Cells were then allowed to grow for 2 days. All treatments were done in triplicate. The day after cells were seeded, the media was changed to low serum media containing 2 μM CellEvent Caspase 3/7 reagent (Life Technologies; C10423) and compounds. The plates were placed in an IncuCyte (Essen Bioscience, Inc.) live cell imager and scanning was started 15-20 mins after. IncuCyte™ ZOOM facilitates live-cell monitoring via customized imaging protocols. Images were taken every 2 h for at least 3 days, using a 10× objective. Phase contrast was used to measure cell confluency/density while green fluorescence was used to measure caspase activity. The images were analyzed using IncuCyte software (Basic Analysis parameters) and a ratio of caspase activity to cell density was determined.

[3] = system: ubiquityl-MDM2 in SJSA-1 osteosarcoma cells; experiment: Cellular ubiquityl-MDM2 assay (MSD Ub/Total MDM2); assay type: cell-based; conditions: Homo sapiens; SJSA-1 cells, low serum conditions; read-out: increase in ubiquityl-MDM2 (EC50)
Method: HCT116 colon cancer cells or SJSA-1 osteosarcoma cells were seeded at a density of 150,000 cell per well in 90 ml (RPMI 1640 media, 10% FBS, 1× GlutaMAX™, Gibco) in 96-well black clear bottom, TC-treated (Greiner, Cat#655090), and incubated for 2 hours at 37° C., 5% CO2 in a tissue culture incubator. Compounds were prepared in a serial dilution in DMSO at 200× the final desired concentration in a 96-well polypropylene V-bottom (Greiner, Cat#651261), then diluted 1:20 in RPMI tissue culture medium and 10 ml transferred to each well of the cell plate. Cell plates were incubated overnight for 20 hours, 37° C., 5% CO2. 20 ml of a […] stock (in RPMI) of the proteasome inhibitor, MG132 (Cayman Chemical, Cat#10012628), was added to each well. Cells were incubated for 1 hour at 37° C., 5% CO2. Quantitation of ubiquityl-MDM2 was carried out using Ub/Total MDM2 whole cell lysate kit (MSD, Cat#K15168D-2). […] MSD read buffer was prepared according to manufacturer's instructions and 150 ml added per well. Plates were read using a MSD Sector Reader. […] Percentage increase in ubiquityl-MDM2 was calculated relative to DMSO controls using Genedata Screener software.

[4] = system: p53 and p21 in p53 wild-type breast cancer and osteosarcoma cells; experiment: Western blot of p53 and p21 in breast cancer, osteosarcoma and normal cells (FIG. 12A); assay type: cell-based; conditions: 15 μM, <24 h, low serum; p53 wild-type breast cancer and osteosarcoma cells but not normal cells
Method: as §1

[5] = system: MCF-7, U Os, normal osteoblast, MDA-MB157 and SaOs cell lines; experiment: CellTiter-Glo viability of tumor, matched normal and p53 null cell lines (FIG. 9); assay type: cell-based
Method: 2,500-5,000 cells were seeded in 1-well of a 96-well plate (Corning; 3904). The following day, the media was changed from normal (10%) to low serum (0.5%) containing vehicle (DMSO) or compounds. 16-24 h later FBS was added to each well to bring serum levels back to normal (10%). Cells were then allowed to grow for 2 days. All treatments were done in triplicate.
Seventy two hours after compounds were added, CellTitre Glo (CTG) reagent was added following the protocol provided by the manufacturer (Promega). In the experiment to test compound dependency on USP7, 3× more USP7 null cells were plated per well (7,500 vs. 2,500 for wild-type (WT) cells), given the slower proliferation of USP7 null cells. For the multiple myeloma experiment, cells seeded in low serum and treated with compounds immediately. Twenty four hours later, serum was added back to normal levels. CTG assay was done 24 h later i.e. 48 h after compounds were added instead of 72 hrs later for the adherent cells.

`CCc1c(-c2ccc3[nH]ncc3c2)cnc(N)c1-c1ccc(O)cc1` [Compound 88, 4-[2-amino-4-ethyl-5-(1H-indazol-5-yl)-3-pyridyl]phenol] was tested, and the “stabilization of p53 and p21 (western blot)” value [1] was “stabilize p53 and p21”, the “cell viability (Incucyte proliferation and caspase activity)” value [2] was “decreases cell viability” and the EC50 [3] was 2000 nM. For the same molecule, the “p53 and p21 levels (western blot)” value [4] was “increases p53 and p21 levels”, the “cell viability (CellTiter-Glo), wild-type p53 tumor cell lines” value ([5]; MCF-7 and U Os, relative to compound 89) was “decreased viability” and the “cell viability (CellTiter-Glo), matched normal and p53 null cell lines” value ([5]; normal osteoblast cell lines, p53 null MDA-MB157 and SaOs) was “do not show similar decreases in cell viability”.
